Activity calls are given as the source filed them. The calls are words filed in the database; no cut-off is given here.
Experiments:
[1] = system: MEF; assay: Induction of apoptosis in Bax(-/-)/Bak(-/-) MEF at 10 uM after 24 to 48 hrs; format: functional, cell-based; settings: Mus musculus
[2] = system: MCF7; assay: Cytotoxicity against human MCF7 cells after 48 hrs by MTT assay; format: functional, cell-based; settings: MCF7, 48 h
[3] = system: SW480; assay: Cytotoxicity against human SW480 cells after 48 hrs by MTT assay; format: functional, cell-based; settings: SW480, 48 h
[4] = system: SMMC-7721; assay: Cytotoxicity against human SMMC7721 cells after 48 hrs by MTT assay; format: functional, cell-based; settings: SMMC-7721, 48 h
[5] = system: HL-60; assay: Cytotoxicity against human HL60 cells after 48 hrs by MTT assay; format: functional, cell-based; settings: HL-60, 48 h
[6] = system: A549; assay: Cytotoxicity against human A549 cells after 48 hrs by MTT assay; format: functional, cell-based; settings: A549, 48 h
[7] = Cytotoxicity against human MCF7/ADR cells after 48 hrs by MTT assay; format: functional, cell-based; settings: NCI/ADR-RES
[8] = system: NCI/ADR-RES; assay: Resistant factor, ratio of IC50 for human MCF7/ADR cells to IC50 for human MCF7 cells; format: functional
[9] = system: SW480; assay: Induction of apoptosis in human SW480 cells assessed as late apoptotic cells at 20 uM after 24 hrs using annexin V-FITC and propidium iodide staining by flow cytometry (reference value: 1.0%); format: functional
[10] = system: SW480; assay: Induction of apoptosis in human SW480 cells assessed as early apoptotic cells at 20 uM after 24 hrs using annexin V-FITC and propidium iodide staining by flow cytometry (reference value: 1.4%); format: functional
[11] = system: MEF; assay: Induction of apoptosis in Bax(-/-)/Bak(-/-) MEF assessed as activation of caspase activity at 20 uM after 24 hrs by CASPACE-FITC staining (reference value: 12.2%); format: functional, Mus musculus
[12] = system: MEF; assay: Induction of apoptosis in Bax(-/-)/Bak(-/-) MEF assessed as late apoptotic cells at 20 uM after 24 hrs using annexin V-FITC and propidium iodide staining by flow cytometry (reference value: 3.3%); format: functional, Mus musculus
[13] = system: SW480; assay: Induction of apoptosis in human SW480 cells assessed as activation of caspase activity at 20 uM after 24 hrs by CASPACE-FITC staining (reference value: 6.2%); format: functional
[14] = system: MEF; assay: Induction of apoptosis in Bax(-/-)/Bak(-/-) MEF after 48 hrs; format: functional, cell-based; settings: Mus musculus
[15] = system: MEF; assay: Induction of apoptosis in Bax(-/-)/Bak(-/-) MEF assessed as early apoptotic cells at 20 uM after 24 hrs using annexin V-FITC and propidium iodide staining by flow cytometry (reference value: 0.6%); format: functional, Mus musculus
[16] = system: MEF; assay: Induction of apoptosis in Bax(-/-)/Bak(-/-) MEF assessed as early apoptotic cells at 10 uM after 24 hrs using annexin V-FITC and propidium iodide staining by flow cytometry (reference value: 0.6%); format: functional, Mus musculus
[17] = system: SW480; assay: Induction of apoptosis in human SW480 cells assessed as activation of caspase activity at 10 uM after 24 hrs by CASPACE-FITC staining (reference value: 6.2%); format: functional
[18] = system: SW480; assay: Induction of apoptosis in human SW480 cells assessed as early apoptotic cells at 10 uM after 24 hrs using annexin V-FITC and propidium iodide staining by flow cytometry (reference value: 1.4%); format: functional
[19] = system: SW480; assay: Induction of apoptosis in human SW480 cells assessed as late apoptotic cells at 10 uM after 24 hrs using annexin V-FITC and propidium iodide staining by flow cytometry (reference value: 1.0%); format: functional
[20] = system: MEF; assay: Induction of apoptosis in Bax(-/-)/Bak(-/-) MEF assessed as activation of caspase activity at 10 uM after 24 hrs by CASPACE-FITC staining (reference value: 12.2%); format: functional, Mus musculus
[21] = system: MEF; assay: Induction of apoptosis in Bax(-/-)/Bak(-/-) MEF assessed as late apoptotic cells at 10 uM after 24 hrs using annexin V-FITC and propidium iodide staining by flow cytometry (reference value: 3.3%); format: functional, Mus musculus

| Structure (SMILES) | Activity [1] | IC50 [2] | IC50 [3] | IC50 [4] | IC50 [5] | IC50 [6] | Activity [9] | Activity [10] | Activity [11] | Activity [12] | Activity [13] | IC50 [14] | Activity [15] | further results |
| --- | --- | --- | --- | --- | --- | --- | --- | --- | --- | --- | --- | --- | --- | --- |
| C=C1C(=O)[C@]23CC[C@H]1C[C@H]2[C@@]12CCC[C@@](C)(CN(CCO[Si](C)(C)C(C)(C)C)C1)[C@H]2C(=C)C3=O | Active | 2.9 µM | 2.78 µM | 2.63 µM | 1.39 µM | 1.55 µM | – | – | – | – | – | – | – | – |
| C=C1C(=O)[C@]23CC[C@H]1C[C@H]2[C@@]12CCC[C@@]4(C)C(=O)N[C@H]1O[C@@H]3C[C@@H]24 | Active | 15.7 µM | 14.2 µM | 15.7 µM | 18.6 µM | 19 µM | – | – | – | – | – | – | – | IC50 [7]: 28.3 µM; Ratio IC50 [8]: 1.4 |
| COc1cccc2c1C(=O)c1c(O)c3c(c(O)c1C2=O)C[C@@](O)(C(=O)CO)C[C@@H]3O[C@H]1C[C@H](N)[C@H](O)[C@H](C)O1 [DOXORUBICIN] | – | 0.077 µM | – | – | – | – | – | – | – | – | – | – | – | IC50 [7]: 68.4 µM; Ratio IC50 [8]: 888.75 |
| C=C1C(=O)[C@]23CC[C@H]1C[C@H]2[C@@]12CCC[C@@]4(C)CN(CCO)[C@H]1O[C@@H]3C[C@H]42 | Active | 10.3 µM | 14 µM | 23.6 µM | 19.3 µM | 18.6 µM | – | – | – | – | – | – | – | – |
| C=C1C(=O)[C@]23CC[C@H]1C[C@H]2[C@@]12CCC[C@@]4(C)C5OCCN5[C@H]1O[C@@H]3C[C@@H]24 (stereo partly drawn) | Active | 0.67 µM | 1.97 µM | 1.04 µM | 1.34 µM | 2.03 µM | 15.9% | 16.9% | 87.8% | 86.2% | 18.2% | 2.24 µM | 1.9% | – |
| C=C1C(=O)[C@]23CC[C@H]1C[C@H]2[C@@]12CCC[C@@](C)(CN(CCO)C1)[C@H]2CC3=O | Active | 15.7 µM | 11.8 µM | 15.2 µM | 14.3 µM | 9.24 µM | 13.3% | 10.9% | 66.6% | 52.2% | 10.9% | 4.52 µM | 11.7% | – |
| C=C1C(=O)[C@]23CC[C@H]1C[C@H]2[C@@]12CCC[C@@](C)(CN(CCO)C1)[C@H]2C(=C)C3=O | Active | 3.57 µM | 2.81 µM | 11.5 µM | 6.61 µM | 6.5 µM | 44.2% | 13.1% | 97.1% | 76.8% | 29.8% | 1.81 µM | 28.2% | – |
| C=C1C(=O)[C@]23CC[C@H]1C[C@H]2[C@@]12CCC[C@@]4(C)C(=O)N(CCO)[C@H]1O[C@@H]3C[C@@H]24 | Active | 13.2 µM | 12.4 µM | 18.4 µM | 18.6 µM | 17.9 µM | – | – | – | – | – | – | – | – |
| C=C1C(=O)[C@]23CC[C@H]1C[C@H]2[C@@]12CCC[C@@](C)(C(=O)N4CCO[C@H]41)[C@H]2C[C@H]3O | Active | 1.12 µM | 2.81 µM | 2.63 µM | 2.73 µM | 3.09 µM | 40.1% | 46.7% | 93.2% | 68.3% | 60.1% | 3.38 µM | 21.7% | Activity [16]: 8.6%; Activity [17]: 12.1%; Activity [18]: 25.5%; Activity [19]: 8.6%; IC50 [7]: 8.8 µM; Activity [20]: 14.3%; Ratio IC50 [8]: 1.66; Activity [21]: 2.1% |
| C=C1C(=O)[C@]23CC[C@H]1C[C@H]2[C@@]12CCC[C@@](C)(COC1=O)[C@H]2C[C@H]3O | Active | 3.25 µM | 3.58 µM | 3.96 µM | 6.36 µM | 3.22 µM | – | – | – | – | – | 1.74 µM | – | – |
| C=C1C(=O)[C@]23CC[C@H]1C[C@H]2[C@@]12CCC[C@@](C)(CN(CCO)C1)[C@H]2C[C@H]3O | Active | 16.6 µM | 14.4 µM | 11.2 µM | 7.95 µM | 9.92 µM | – | – | – | – | – | – | – | – |
| C=C1C(=O)[C@@]23CC[C@@H](C[C@H]2[C@@]24CCC[C@@](C)(CN(CCO)C2)[C@@H]14)C(=C)[C@@H]3O | Active | 6.98 µM | 9.84 µM | 1.48 µM | 4.82 µM | 3.04 µM | – | – | – | – | – | – | – | – |
